Results taken from ChEMBL document CHEMBL4316583, “In Vitro and in Vivo Antitumor Effects of Plant-Derived Miliusanes and Their Induction of Cellular Senescence” (J Med Chem, 2019).
Active and inactive are the calls of the source. No cut-off for these calls is given here.

Experiments:
HCT-116 [1] = assay: Cytotoxicity against human HCT116 cells assessed as cell growth inhibition after 24 hrs by sulforhodamine B assay; format: functional, cell-based; conditions: HCT-116, 24 h
HCT-116 [2] = assay: Cytotoxicity against human HCT116 cells assessed as cell growth inhibition after 48 hrs by sulforhodamine B assay; format: functional, cell-based; conditions: HCT-116, 48 h
A-375 = assay: Cytotoxicity against human A375 cells assessed as cell growth inhibition after 48 hrs by sulforhodamine B assay; format: functional, cell-based; conditions: A-375, 48 h
A549 = assay: Cytotoxicity against human A549 cells assessed as cell growth inhibition after 48 hrs by sulforhodamine B assay; format: functional, cell-based; conditions: A549, 48 h
HCT-116 [3] = assay: Antitumor activity against human HCT116 cells xenografted in nude BALB/c mouse assessed as tumor growth inhibition at 20 mg/kg, ip administered every other day for 21 days relative to control; format: functional; conditions: HCT-116, ip, 504 h, read-out: TGI
HCT-116 [4] = assay: Antitumor activity against human HCT116 cells xenografted in nude BALB/c mouse assessed as tumor growth inhibition at 40 mg/kg, ip administered every other day for 21 days relative to control; format: functional; conditions: HCT-116, ip, 504 h, read-out: TGI
[5] = Toxicity in nude BALB/c mouse xenografted with human HCT116 cells assessed as body weight loss at 20 to 40 mg/kg, administered every other day for 21 days; format: organism-based; conditions: in vivo, 504 h
[6] = test system: Panel NCI-60 (60 carcinoma cell lines); assay: Growth inhibition human NCI60 cells after 48 hrs by sulforhodamine B assay; format: functional
HCT-116 [7] = assay: Antiproliferative activity against human HCT116 cells assessed as inhibition of colony formation at 0.58 to 2.31 uM after 14 days by crystal violet-staining based assay; format: functional, cell-based
HCT-116 [8] = assay: Induction of cellular senescence in human HCT116 cells assessed as up-regulation of p21 protein expression at 0.1 to 0.4 ug/ml after 48 hrs by Western blot analysis; format: functional, cell-based
HCT-116 [9] = assay: Induction of apoptosis in human HCT116 cells assessed as early apoptotic cells at 11.5 uM after 48 hrs by annexin V/propidium iodide-double staining based flow cytometry (reference value: 4.8%); format: functional
HCT-116 [10] = assay: Induction of apoptosis in human HCT116 cells assessed as viable cells at 11.5 uM after 48 hrs by annexin V/propidium iodide-double staining based flow cytometry (reference value: 88.3%); format: functional; conditions: HCT-116, 48 h, read-out: Activity
HCT-116 [11] = assay: Induction of cellular senescence in human HCT116 cells at 11.5 uM after 48 hrs by SA-beta-gal-staining based assay; format: functional, cell-based
HCT-116 [12] = assay: Induction of apoptosis in human HCT116 cells assessed as necrotic cells at 11.5 uM after 48 hrs by annexin V/propidium iodide-double staining based flow cytometry (reference value: […]); format: functional
HCT-116 [13] = assay: Induction of apoptosis in human HCT116 cells assessed as late apoptotic cells at 11.5 uM after 48 hrs by annexin V/propidium iodide-double staining based flow cytometry (reference value: 4.6%); format: functional
HCT-116 [14] = assay: Antitumor activity against human HCT116 cells xenografted in nude BALB/c mouse assessed as tumor growth inhibition at 25 mg/kg, ip administered every other day for 21 days relative to control; format: functional; conditions: HCT-116, ip, 504 h, read-out: TGI
[15] = Ratio of IC50 for human A2780DDP cells to IC50 for human A2780 cells after 72 hrs by MTS assay; format: functional
[16] = Ratio of IC50 for human HCT116/VM46 cells to IC50 for human HCT116 cells after 72 hrs by MTS assay; format: functional
[17] = Ratio of IC50 for human A2780/TAX cells to IC50 for human A2780 cells after 72 hrs by MTS assay; format: functional
A2780 = assay: Growth inhibition human A2780 cells after 72 hrs by MTS assay; format: functional, cell-based; conditions: A2780, 72 h
HCT-116 [18] = assay: Growth inhibition human HCT116 cells after 72 hrs by MTS assay; format: functional, cell-based; conditions: HCT-116, 72 h
[19] = Ratio of IC50 for human HCT116/VP35 cells to IC50 for human HCT116 cells after 72 hrs by MTS assay; format: functional
HT-29 = assay: Growth inhibition human HT-29 cells after 72 hrs by MTS assay; format: functional, cell-based
Mus musculus [20] = assay: Effect on p27 protein expression in BALB/c mouse xenografted with human HCT116 cells at 20 mg/kg, administered every other day for 3 weeks by immunohistochemical analysis; format: functional, organism-based
Mus musculus [21] = assay: Induction of cellular senescence in BALB/c mouse xenografted with human HCT116 cells assessed as up-regulation of p16 protein expression at 20 mg/kg, administered every other day for 3 weeks by immunohistochemical analysis; format: functional, organism-based
HCT-116 [22] = assay: Antiproliferative activity against human HCT116 cells assessed as inhibition of colony formation at 0.91 to 3.64 uM after 14 days by crystal violet-staining based assay; format: functional, cell-based
HCT-116 [23] = assay: Induction of cellular senescence in human HCT116 cells assessed as up-regulation of p21 protein expression at 0.2 to 0.8 ug/ml after 48 hrs by Western blot analysis; format: functional, cell-based
HCT-116 [24] = assay: Antiproliferative activity against human HCT116 cells xenografted in BALB/c mouse at 20 mg/kg, administered every other day for 3 weeks by Ki67-staining based assay; format: functional, organism-based
Mus musculus [25] = assay: Induction of cellular senescence in BALB/c mouse xenografted with human HCT116 cells assessed as up-regulation of p21 protein expression at 20 mg/kg, administered every other day for 3 weeks by immunohistochemical analysis; format: functional, organism-based

CC(=O)O[C@@H]1C=CC(=O)[C@@]2(CC(=O)O[C@@H]2/C=C(\C)CC/C=C(\C)CO)C1
IC50 (HCT-116 [1]): 6.97 µM
IC50 (HCT-116 [2]): 5.85 µM

COC(=O)C[C@@]1(C/C=C(\C)CCC=C(C)C)C[C@H](OC(C)=O)C=C[C@H]1O
IC50 (A-375): 11.6 µM
IC50 (HCT-116 [2]): 18.3 µM
IC50 (A549): 18 µM

COC(=O)[C@H](O)[C@@]1(C/C=C(\C)CCC=C(C)C)C[C@H](OC(C)=O)C=CC1=O
IC50 (A-375): 3.6 µM
IC50 (HCT-116 [2]): 4.1 µM
IC50 (A549): 7.15 µM

CC(=O)O[C@@H]1C=C[C@@H](O)[C@@]2(CC(=O)O[C@@H]2/C=C(\C)CCC=C(C)C)C1
IC50 (A-375): 7.24 µM
IC50 (HCT-116 [2]): 13.3 µM
IC50 (A549): 18.3 µM

CC(=O)O[C@H]1C[C@]2(CC(=O)O[C@@H]2/C=C(\C)CCC=C(C)C)C(=O)C[C@@H]1Nc1ccccc1
IC50 (HCT-116 [1]): 3.43 µM
inhibition in vivo at 20 mg/kg (HCT-116 [3]): 31.1%
IC50 (HCT-116 [2]): 2.63 µM
inhibition in vivo at 40 mg/kg (HCT-116 [4]): -8.6%
Activity [5]: Non-Toxic

CC(=O)O[C@@H]1C=CC(=O)[C@@]2(CC(=O)O[C@@H]2/C=C(\C)CCC=C(C)C)C1
IC50 (HCT-116 [1]): 3.94 µM
IC50 (A-375): 1.67 µM
IC50 (HCT-116 [2]): 1.97 to 2.7 µM
GI50 [6]: 0.03 to 4.79 µM
Activity (HCT-116 [7]): Active
IC50 (A549): 6.97 µM
Activity (HCT-116 [8]): Active

O=c1[nH]cc(F)c(=O)[nH]1 [FLUOROURACIL]
Activity (HCT-116 [9]): 4.7%
viability at 11.5 µM (HCT-116 [10]): 78.3%
Activity (HCT-116 [11]): Active
Activity (HCT-116 [12]): 4.4%
Activity (HCT-116 [13]): 12.6%
inhibition in vivo at 25 mg/kg (HCT-116 [14]): 32.5%

CC(=O)O[C@H]1C[C@]2(CC(=O)O[C@@H]2/C=C(\C)CCC=C(C)C)C(OC(=O)c2ccccc2)=C[C@H]1N(C(=O)c1ccccc1)c1ccccc1
IC50 (HCT-116 [1]): > 30 µM
IC50 (HCT-116 [2]): > 30 µM

CC(=O)O[C@@H]1CCC(=O)[C@@]2(CC(=O)O[C@@H]2/C=C(\C)CCC=C(C)C)C1
IC50 (HCT-116 [1]): > 30 µM
IC50 (HCT-116 [2]): > 30 µM

CC(C)=CCC/C(C)=C/[C@H]1OC(=O)C[C@]12C[C@H](O)C=C[C@H]2O
IC50 (A-375): > 65 µM
IC50 (HCT-116 [2]): > 65 µM
IC50 (A549): > 65 µM

CC(=O)O[C@@H]1C=CC(=O)[C@@]2(CC(=O)O[C@@H]2CC(C)CCCC(C)C)C1 (some centres undefined)
IC50 (HCT-116 [1]): 1.95 µM
IC50 (HCT-116 [2]): 1.95 µM

CC(=O)O[C@@H]1C=CC(=O)[C@@](C/C=C(\C)CCC=C(C)C)(CC(=O)O)C1
IC50 (A-375): > 57.5 µM
IC50 (HCT-116 [2]): > 57.5 µM
IC50 (A549): > 57.5 µM

CO[C@@H]1CC(=O)[C@@]2(CC(=O)O[C@@H]2/C=C(\C)CCC=C(C)C)C[C@@H]1O
IC50 (A-375): 3.7 µM
IC50 (HCT-116 [2]): 3.5 µM
GI50 [6]: 0.03 to 4.79 µM
IC50 (A549): 4.36 µM

COc1cc([C@@H]2c3cc4c(cc3[C@@H](O[C@@H]3O[C@@H]5CO[C@@H](C)O[C@H]5[C@H](O)[C@H]3O)[C@H]3COC(=O)[C@H]23)OCO4)cc(OC)c1O [ETOPOSIDE]
Ratio IC50 [15]: 2.5
Ratio IC50 [16]: 13.5
Ratio IC50 [17]: 1.7
IC50 (A2780): 0.07 µM
IC50 (HCT-116 [18]): 0.41 µM
Ratio IC50 [19]: 7.4

CC(=O)O[C@@H]1CC[C@@H](O)[C@@]2(CC(=O)O[C@@H]2/C=C(\C)CCC=C(C)C)C1
IC50 (HCT-116 [1]): > 30 µM
IC50 (HCT-116 [2]): > 30 µM

CC(=O)O[C@@H]1C=CC(=O)[C@@]2(CC(=O)O[C@@H]2/C=C(\C)CCC=C(CO)CO)C1
IC50 (HCT-116 [1]): 12.9 µM
IC50 (HCT-116 [2]): 13.7 µM

COC(=O)C[C@@]1(C/C=C(\C)CCC=C(C)C)C[C@H](OC(C)=O)C=CC1=O
IC50 (A-375): 10.4 µM
IC50 (HCT-116 [2]): 13 µM
IC50 (A549): 24.5 µM

CO[C@H]1CC(=O)[C@@]2(CC(=O)O[C@@H]2/C=C(\C)CCC=C(C)C)C[C@@H]1O
IC50 (A-375): 9.86 µM
IC50 (HCT-116 [2]): 17.2 µM
IC50 (A549): 18.4 µM

CC(=O)O[C@@H]1C=CC(=O)[C@@]2(CC(=O)O[C@@H]2/C=C(\C)CCCC(C)C=O)C1 (some centres undefined)
IC50 (HCT-116 [1]): 7.18 µM
IC50 (HCT-116 [2]): 5.49 µM

CC(=O)O[C@H]1C[C@]2(CC(=O)O[C@@H]2/C=C(\C)CCC=C(C)C)C(=O)C[C@H]1N(C(=O)c1ccccc1)c1ccccc1
IC50 (HCT-116 [1]): 14 µM
IC50 (HCT-116 [2]): 10.4 µM

CC(=O)O[C@@H]1CC[C@@H](OC(C)=O)[C@@]2(CC(=O)O[C@@H]2/C=C(\C)CCC=C(C)C)C1
IC50 (HCT-116 [1]): > 30 µM
IC50 (HCT-116 [2]): > 30 µM

CC(=O)O[C@@H]1CCC(=O)[C@@]2(CC(=O)O[C@@H]2CC(C)CCCC(C)C)C1 (some centres undefined)
IC50 (HCT-116 [1]): > 30 µM
IC50 (HCT-116 [2]): > 30 µM

CC(=O)O[C@H]1C[C@]2(CC(=O)O[C@@H]2/C=C(\C)CCC=C(C)C)C(=O)C[C@H]1Nc1ccccc1
IC50 (HCT-116 [1]): 2.93 µM
growth inhibition (GI) (HT-29): Active
inhibition in vivo at 20 mg/kg (HCT-116 [3]): 36.4%
Activity (Mus musculus [20]): inactive
IC50 (HCT-116 [2]): 2.5 µM
inhibition in vivo at 40 mg/kg (HCT-116 [4]): 36.4%
Activity [5]: Non-Toxic
Activity (Mus musculus [21]): Active
Activity (HCT-116 [22]): Active
Activity (HCT-116 [23]): Active
Activity (HCT-116 [24]): Active
Activity (Mus musculus [25]): Active

CC(=O)O[C@@H]1C=CC(=O)[C@@]2(CC(=O)O[C@@H]2/C=C(\C)C/C=C/C(C)(C)O)C1
IC50 (A-375): 4.25 µM
IC50 (HCT-116 [2]): 4.2 µM
IC50 (A549): 20.8 µM
